US20160214926A1, “DIPHENYLOXYALKYLAMINE DERIVATIVES AND ARYLOXYALKYLAMINE DERIVATIVES, PHARMACEUTICAL COMPOSITION, USE OF SAID PHARMACEUTICAL COMPOSITION FOR TREATING, PREVENTING OR INHIBITING CHRONIC PULMONARY INFLAMMATORY DISEASES AND METHOD FOR TREATING OR PREVENTING SUCH DISEASES” (FUNDACAO OSWALDO CRUZ, priority 2013, published 2016)
Read-outs that look alike come from different tables or passages of the source.

Assays:
rat tracheal rings = assay: Inhibition of carbachol-induced contraction of rat tracheal rings (pretreatment); settings: for IC50 / Emax: carbachol 10 μM, pretreated 10 minutes; for Emax: mean ± SEM, read-out: EMAX maximum effect of inhibition of carbachol-induced contraction
From the text: In this study, Wistar rats of both sexes were used, weighing between 200 and 250 g, coming from the Laboratory Animal Breeding Center of Fundacdo Oswaldo Cruz. As previously described (Coelho et al., 2008), the animals were sacrificed by exposure to air atmosphere enriched with CO2, Then, the anterior cervical region was opened so that the trachea could be located and removed. It was then transferred to a Petri dish containing Krebs solution with the following composition (mM): NaCl (118), KCl (4.8), CaCl2 (2.5), MgSO4 (1.2), KH2PO4 (1.2), NaHCO3 (24), and glucose (11). The total segment was divided into fragments of about 3 to 4 rings, which were kept in another Petri dish containing Krebs solution. Each fragment was mounted vertically on a 10 ml cuvette with Krebs solution maintained at 37° C. and aerated with carbogen mixture (95% O2 and 5% CO2). The lower rod is fixed to the cuvette base and the top portion was attached to the isometric transducer for measuring the voltage variation of the fragment. The transducer was connected to a device which transforms the voltage variation in digital record. The fragments were subjected to a basal voltage of 1 g and were calibrated, so that the subsequent contractions could be expressed as a percentage of this 1 g voltage. The solutions were introduced inside the cuvettes with the aid of an automatic pipette. The end of the tip was always placed at the same height and position, without touching the muscle. The tracheal rings were initially contracted with 2.5 μM of carbachol. When the contractions reached the plateau, each segment was washed until the total relaxation of the smooth muscle. […] All results were expressed as percentage of the contraction produced by 2.5 μM of carbachol (Coelho et al., 2008).

[1] = test system: rat tracheas pre-contracted with carbachol; assay: Relaxation of rat trachea pre-contracted with carbachol
Method: To assess the potential relaxing effect of the respiratory smooth muscle, rat tracheas were obtained and maintained in an isolated organ bath, as previously described (Coelho et al., 2008). The tracheal segments were then pre-contracted with carbachol at the concentration of 2.5 μM and subjected to increasing concentrations of the tested compounds. All results were expressed as percentage of the contraction produced by carbachol (Coelho et al., 2008).

tracheal rings = assay: Anaphylactic (ovalbumin-induced) contraction of tracheal rings from sensitized rats; design: species or system Wistar rats
Method: In this study, Wistar rats of both sexes were used, weighing between 200 and 250 g, coming from the Laboratory Animal Breeding Center of Fundacdo Oswaldo Cruz. As described previously (da Costa et al., 2007), the animals were sensitized by injection into the dorsal subcutaneous tissue with mixture containing 50 μg of ovalbumin and 5 mg of aluminum hydroxide on days 0 and 7. On the 14th day after the first sensitization, the animals were sacrificed for the removal of the trachea. After a stabilization period of 30 minutes, the tracheal rings were contracted initially with carbachol (2.5 μM) for testing the feasibility and reproducibility of the responses of the preparation.
The tracheal rings were exposed to increasing concentrations of JME-173 (3-30 μM), or carrier (0.9% NaCl) for 30 minutes before the triggering of the contractile response triggered by ovalbumin (100 μg/ml). Salmeterol (30 μM) was used as reference treatment. The responses were expressed as mean±Standard Error of the Mean of at least 5 tracheal segments. All results were expressed as percentage of the contraction produced by 2.5 μM of carbachol.

[2] = test system: mast cells of the RBL-2H3 line; assay: Antigen-induced degranulation of sensitized mast cells (beta-hexosaminidase release); assay type: cell-based; settings: Rattus norvegicus; for Emax: RBL-2H3, DNP-BSA, read-out: EMAX blocking of anaphylactic mast cell degranulation
Method: For this study, mast cells of the RBL-2H3 line were used, as previously reported (Beaven et al., 1987). […] The cells were then dissociated from the plate using trypsin, centrifuged at 1000 rpm for 5 minutes and distributed in 48-well plates at a density of 125,000 cells per well. The cells were sensitized with monoclonal DNP-specific […] (1 μg/mL) diluted in the same medium used for the cultivation and maintained in the oven for 20 hours. After this period, the cells were washed with Tyrode-gelatin and subjected to treatment with increasing concentrations of […]-209 or mexiletine for 60 minutes. Then, incubation was performed with DNP-BSA (10 ng/ml) for a further period of 60 minutes. After this period, 10 μL of supernatant were collected from each well and added to a 96-well plate. The cells were lysed with 200 μL of 0.1% Triton X-100 and 10 μL of the lysate of each plate were added to the 96-well plate. Then, 40 μL of substrate for the β-hexosaminidase enzyme were added to the samples. After 40 minutes of reaction, reaction stopping solution (0.2 M glycine) was added, generating a colorimetric response, which was measured by spectrophotometer (λ=405 nm).

A/J mice [3] = assay: Ovalbumin asthma model: airway hyperreactivity, leukocyte infiltration, cytokines (nebulization); assay type: in vivo
Method: Male A/J mice (18-20 g), coming from the Laboratory Animal Breeding Center of Oswaldo Cruz Foundation, were used in the experiments. The animals were previously sensitized with a mixture of ovalbumin (OVA) (50 μg) (Grade V; Sigma, St. Louis, Mo., USA) and aluminum hydroxide (5 mg) administered subcutaneously on day 0 with boost on day 14 (equal suspension administered intraperitoneally). Nasal instillations of OVA (25 μg/25 μl in sterile 0.9% NaCl) were administered on days 14, 21, 28 and 35, with the hyperresponsiveness analysis performed 24 hours after the last challenge. […] That is, the treatments took place after the installation of asthma framework, reflecting a therapeutic action of the respective compounds analyzed.
The effect of the treatments on bronchial hyperreactivity was investigated by measuring the resistance changes and pulmonary elastance, using invasive barometric plethysmography whole-body system (Buxco, USA), as previously described (Olsen et al., 2012).

A/J mice [4] = assay: Ovalbumin asthma model: hyperreactivity, mucus production, peribronchial fibrosis (nebulization); assay type: in vivo
From the text: Male A/J mice (18-20 g), coming from the Laboratory Animal Breeding Center of Oswaldo Cruz Foundation, were used in the experiments. The sensitization procedures, antigen challenge and treatment used in this study followed the experimental protocol shown in FIG. 6. Histological techniques were used for the quantification of mucus and peribronchial fibrosis, following previously reported and validated experimental protocols (Serra et al., 2012).

[5] = test system: sodium current in GH3 cells; assay: Inhibition of sodium current in GH3 cells, patch clamp; assay type: cell-based, rat
[6] = trachea pre-contracted with carbachol 2.5 μM, mean±SEM

Compound `Cc1cc(OCC(C)N)cc(C)c1Br.Cl` (centres unmarked) [JME-173] has an IC50 (rat tracheal rings; Rattus norvegicus) of 44.4 µM, an Emax (rat tracheal rings; Rattus norvegicus) of 97.9 ± 4.7% and an inhibition at 100 µM (rat tracheal rings; Rattus norvegicus, compound 100 μM, pre-treatment 10 minutes, read-out: inhibition of the muscarinic contraction) of ~98%. The IC50 (rat tracheal rings) was 44.3 µM, the EC50 ([1]; Rattus norvegicus, trachea pre-contracted with carbachol 2.5 μM, mean±SEM) was 3100 µM and the “times more potent as relaxation inducers than mexiletine” value ([1]; pre-contracted trachea) was 47 times. For the same compound, the maximum relaxation effect [1, 6] was 118%, the EC50 (tracheal rings; Rattus norvegicus, ovalbumin 100 μg/ml, 30 minutes pretreatment, read-out: EC50 inhibition of anaphylactic contraction response) was 8.3 µM and the “blocking of anaphylactic contraction” value (tracheal rings; compound 30 μM) was “completely inhibited”. The Emax [2] was 97%, the “IL-5 generation in lung tissue” value (A/J mice [3]; nebulization 2%) was “blocking” and the “IL-13 generation in lung tissue” value (A/J mice [3]; nebulization 2%) was “blocking”. The “eotaxin-2 generation in lung tissue” value (A/J mice [3]; nebulization 2%) was “blocking”, the “increased levels of anti-inflammatory cytokine IL-10” value (A/J mice [3]; nebulization 2%) was “without change” and the “airway hyperreactivity (lung resistance and elastance after methacholine)” value (A/J mice [3]; nebulization 2% for 30 minutes, OVA sensitized and challenged) was “abolished”. For the same compound, the airway hyperreactivity (A/J mice [4]; nebulization 0.5%, 1% or 2% for 30 minutes) was “able to block”, the “inhibition of mucus production in airways” value (A/J mice [4]; nebulization 0.5%, PAS staining, quantitative analysis) was “about 70%” and the peribronchial fibrotic response (A/J mice [4]; nebulization, Gömöri trichrome, morphometry) was “clearly abolished”.
Work on `NC1=N[C@H](O)[C@H]2[C@H]3O[C@]4(O)O[C@@H]([C@@H](O)[C@@]2(N1)[C@@H]4O)[C@]3(O)CO` [tetrodotoxin] yielded an IC50 ([5]; read-out: IC50 inhibition of sodium current) of 0.304 µM.
In the case of `Cc1cccc(C)c1OCC(C)N` (centres unmarked) [Mexiletine, 2-(2-aminopropoxy)-1,3-dimethylbenzene, reference compound], the IC50 ([5]; GH3 cells, patch clamp, read-out: IC50 for blocking the sodium current) is reported as ~278 µM, the IC50 (rat tracheal rings; Rattus norvegicus) is reported as 466 µM and the Emax (rat tracheal rings; Rattus norvegicus) is reported as 87.7 ± 4.9%. The “blocking of the muscarinic contraction” value (rat tracheal rings; compound 1000 μM) was “about 88%”, the maximum relaxation effect [1, 6] was 40% and the IC50 ([2]; RBL-2H3, 1 h, RBL-2H3, DNP-BSA 10 ng/ml, 60 minutes treatment, read-out: IC50 blocking of anaphylactic mast cell degranulation) was 382 µM. It also gave an Emax [2] of 100%.
